Laboratory results published in patent US11918822B2, “Compositions and methods for enhancing the biological response to chemical agents and physical stimuli” (The Research Foundation for the State University of New York, priority 2010, dated 2024).

Tested on: C3H10T1/2 embryonic mesenchymal stem cells
Assay: Adipogenesis of mesenchymal stem cells in adipogenic medium (adiponectin, PPARγ immunoblots, lipid granules)
Type: cell-based
Experimental: C3H10T1/2 embryonic mesenchymal stem cells were maintained in growth medium (α-MEM, 10% FBS, 100 µg/ml penicillin/streptomycin). Cells were plated at a density of 6,000-10,000 cells per cm^2 in collagen-I coated silicone membrane plates and cultured for two days before loading protocols began. Adipogenic medium included 0.1 μM dexamethasone, 5 μg/ml insulin, and in some cases, 50 μM indomethcin. If noted, MSC wee transfected with siRNA (100 nm) in serum-free OptiMEM overnight before replacing the medium. Multi-potential medium contained 50 μg/ml ascorbic acid, 1 μM β-glycerophosphate, 10 nM dexamethasone, nM all trans-retinoic acid, 5 μg/mi insulin, 0.5 mM 3-isobutyl-1-methylxanthine (IBMX).
Low Intensity Vibration (LIV): To deliver LIV to cultured MSC, an amplified loudspeaker generated controlled 90 Hz 0.6 g (where 1.0 g is Earth's gravitational field, or […]) standing wave accelerations/decelerations through the wells of culture dishes. Dishes were removed from the incubator during the loading periods (up to three times per day) and set on the lab-bench (control) or, for LIV, on the loudspeaker.
Western blotting: Details were as in Sen, et al. (Endocrinology 42:6065-6075 (2008)). Antibodies included those directed against active β-catenin (Upstate, Temecula, CA), total […] (BD, Bedford, MA), total-GSK3β Chemicon, Billerica, MA), aP2, PPARγ, adiponectin, COX2, NFATc1 and tubulin (Santa Cruz, CA). Densitometry was determined using NIH ImageJ, 1.37v.
Histochemical Staining: After fixation in 2% formaldehyde, cells were rinsed before staining for cytoplasmic triglyceride droplets with oil-red-O.

Molecule: O=C1NC(=O)C(c2ccccc2[N+](=O)[O-])=C1Nc1ccc(O)c(Cl)c1 [SB415286]
- effect on adipogenesis (MSC in adipogenic medium): prevention of adipogenesis
- effect on adipogenesis when β-catenin is knocked down (MSC with siRNA targeting β-catenin (+siCat)): blocked by targeting β-catenin

Molecule: COc1ccc2c(c1)c(CC(=O)O)c(C)n2C(=O)c1ccc(Cl)cc1 [indonethacin]
- time to adipogenesis (rate of adipogenesis) after addition to adipogenic media (added to adipogenic media, without it 7-8 days): 4 to 5 days

B1: DKK1: protein from R & D Systems added at doses known to inhibit Wnt binding Lrp receptors (protein, UniProt O94907 32-266, looked up)
Dickkopf-related protein 1: TLNSVLNSNAIKNLPPPLGGAAGHPGSAVSAAPGILYPGGNKYQTIDNYQPYPCAEDEECGTDEYCASPTRGGDAGVQICLACRKRRKRCMRHAMCCPGNYCKNGICVSSDQNHFRGEIEETITESFGNDHSTLDGYSRRTTLSSKMYHTKGQEGSVCLRSSDCASGLCCARHFWSKICKPVLKEGQVCTKHRRKGSHGLEIFQRCYCGEGLSCRIQKDHHQASNSSRLHTCQRH
- effect on LIV's ability to inhibit adipogenesis (added to LIV treated cultures at doses known to inhibit Wnt binding Lrp receptors): failed to block LIV's ability to inhibit adipogenesis
